From EP0465091B1, “Use of 3-oxygermylpropionic acid to treat cold syndrome” (SANWA KAGAKU KENKYUSHO CO., LTD., priority 1990, dated 1992)

Assays:
[1] = tested on: rats; assay: Antipyretic activity in dry yeast-induced fever (rectal temperature); assay type: in vivo; settings: oral; for Changes in mean temperature, Time 1 hr: rectal temperature 1 hr from dosing; for Changes in mean temperature, Time 2 hr: rectal temperature 2 hr from dosing; for Changes in mean temperature, Time 4 hr: rectal temperature 4 hr from dosing; for Changes in mean temperature, Time 8 hr: rectal temperature 8 hr from dosing; for Changes in mean temperature, Time 0 hr: rectal temperature at 0 hr (18 hours after yeast, at dosing)
Protocol: A 20 % suspension of dry yeast was subcutaneously injected into a Wister line of (masculine) rats (weights: 170-200 g) at a dose of 1 ml/100 g to bring their rectal temperatures up to higher than 39°C(39.13 0.02 ) after the lapse of 18 hours. The drugs to be tested were orally administrated to these rats, six for each group, to measure their rectal temperatures at 1, 2, 4 and 8 hours from dosing. The drugs used were: • (1) 75 mg/Kg (50 mg/Kg calculated as 3-OGP) of the primary composition according to Preparation Example; • (2) 1 mg/Kg of indomethacin (IND); • (3) 5 mg/Kg of indomethacin (IND); • (4) 75 mg/Kg (50 mg/Kg calculated as 3-OGP) of the primary composition according to Preparation Example 1 + 1 mg/Kg of indomethacin - administer at once; and • (5) No drug - control.

[2] = see JP-A-57-53800 and US-A-4309412; cited from earlier work
[3] = primary composition 75mg/Kg, IND 1mg/Kg, or both

For COc1ccc2c(c1)c(CC(=O)O)c(C)n2C(=O)c1ccc(Cl)cc1 [IND, Indomethacin], the “Changes in mean temperature, Time 1 hr” value ([1]; IND 5mg/Kg) was 38.35 °C, the “Changes in mean temperature, Time 1 hr” value [1, 3] was 38.81 °C and the “Changes in mean temperature, Time 2 hr” value ([1]; IND 5mg/Kg) was 37.67 °C. For the same compound, the “Changes in mean temperature, Time 2 hr” value [1, 3] was 38.65 °C, the “Changes in mean temperature, Time 4 hr” value ([1]; IND 5mg/Kg) was 37.75 °C and the “Changes in mean temperature, Time 4 hr” value [1, 3] was 38.44 °C. For the same compound, the “Changes in mean temperature, Time 8 hr” value ([1]; IND 5mg/Kg) was 37.94 °C, the “Changes in mean temperature, Time 8 hr” value [1, 3] was 38.30 °C and the “Changes in mean temperature, Time 0 hr” value ([1]; IND 5mg/Kg) was 39.13 °C. For the same compound, the “Changes in mean temperature, Time 0 hr” value [1, 3] was 39.13 °C.
For 3-oxygermylpropionic acid [3-OGP], the “stability in the presence of water” value [2] is given as “so unstable in the presence of water that its pharmacological activity decreases drastically”.
